Values quoted from earlier work, collected in publication PMC3262105 (Journal of the American Chemical Society, 2012).

Experiments:
[1] = test system: SEVI- and semen-mediated enhancement of HIV infection in T cells
[2] = test system: cervical cells; conditions: concentration 10 times the IC50 for efficacy
[3] = test system: cervical cells; conditions: concentration 10 times the IC50 for efficacy; remark: listed apart in the source

Q: With `Cc1ccc2nc(-c3ccc(NCCOCCOCCOCCOCCOCCO)cc3)sc2c1` [BTA-EG6] as the molecule, how does the “concentration required to nearly completely neutralize the effects of SEVI on HIV-1 infection” value [1] read?
A: 44 µM

Q: And the IC50 ([1]; read-out: IC50 for reducing SEVI-enhanced infection of HIV, T cells)?
A: 13 µM

Q: What about the “toxicity to cervical cells” value [2] of the same molecule?
A: not toxic

Q: And the pro-inflammatory activity [3]?
A: did not exhibit any pro-inflammatory activity
